# Source: article PMC8529588 (Nature chemical biology, 2021)
# Where no end group is shown, it is not given here. [ ]: non-standard residue; d: D form. The star is where a group is joined. Biotin = O=C1N[C@H]2[C@H](CS[C@H]2CCCCC(=O)*)N1; pT = C[C@@H](OP(=O)(O)O)[C@H](N)C(=O)O
# T1: Fbxo48-V5 (Homo sapiens, UniProt Q5FWF7)
# T1 sequence (Q5FWF7 1-155): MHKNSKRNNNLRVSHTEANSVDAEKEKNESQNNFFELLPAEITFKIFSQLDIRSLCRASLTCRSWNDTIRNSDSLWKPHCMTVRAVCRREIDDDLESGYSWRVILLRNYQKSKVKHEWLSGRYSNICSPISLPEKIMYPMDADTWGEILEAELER
# T2: Purified human Fbxo48 protein (recombinant, HIS-tagged) (human, UniProt Q5FWF7 1-155)
# T2 sequence: T1 sequence (Q5FWF7 1-155)
# Legend:
# Fbxo48-V5 = target: T1, Fbxo48-V5; test: cellular thermal shift assay; type: cell-based; settings: 3 μM BC1618, 30 min, HEK293/293T cells; Fbxo30-V5 as negative control
# [1] = target: T2, Purified human Fbxo48 protein …; test: pull-down
binding result [1],Molecule,"cellular thermal shift assay (CETSA), immunoblot (Fbxo48-V5)"
,"OC(COc1ccc(C(F)(F)F)cc1)CN(Cc1ccccc1)Cc1ccccc1 (centres unmarked) [compound 2, BC1618]",BC1618 directly interacted with Fbxo48 but not Fbxo30 (negative control)
binds,Biotin-DGEFLR[pT]SCGSPN [phospho-Ampkα peptide (Biotin-DGEFLRT(p)SCGSPN)],
